Where two headings read alike, the source gives them in different places.
What was measured:
[1] = prior art statement; cited from earlier work
HIV = details: prior art statement; cited from earlier work
[2] = preliminary results of Biochemical Pharmacology 38, 869-74 (1989); cited from earlier work
HIV (LAV Strain) = test: Antiviral activity in HIV-infected A301 (Alex) cells, read out by reverse transcriptase level; format: cell-based; details: Human immunodeficiency virus 1, 168 h
Protocol: This procedure is a modification of a procedure initially described by Chen et al., Biochemical Pharmacology, 36 (24), 4361-4362 (1987).
(§1) A301 (Alex) cells are pre-infected with a constant amount of HIV (LAV Strain) for three hours at 37°C. Test compounds and AZT (control) are added to the infected cells in two, three or five-fold dilutions, diluted out four places for screening and eight places for confirmation in 96 well plates. Unless mentioned the highest concentration is […]. The test plates are incubated in CO₂ at 37°C for seven days (incubation time depends on virus pool titer) with a partial medium/sample change on day four of the incubation period. Uninfected A301 cells with sample dilutions, but without virus, are used to evaluate cytotoxicity.
Reverse transcriptase levels are assayed at the end of the incubation period as follows, to determine if antiviral activity is present.
[…] of medium from the HIV infected Alex cells is added to […] of 3.2% Triton X-100. This solution is incubeted for 30 minutes at 37°C, then […] of 4X assay mix is added to it. The 4X assay mix contains [³H]TTP, poly(A).oligo(dT), potassium chloride, magnesium chloride, dithiothreitol, and Tris-HCl buffer, pH8.0. […] The radioactivity remaining on the 3MM paper is quantitated by scintillation counter, and corresponds to reverse transcriptase level.

[3] = Cytotoxicity in uninfected A301 cells; format: cell-based; details: human; uninfected A301 cells with sample dilutions, without virus; read-out: Cell Toxicity Partial
Protocol: as §1, with “Test compounds and AZT (control) are added to the infected cells in two, three or five-fold dilutions, diluted out four places for screening and eight places for confirmation in 96 well plates.” left out

Uninfected A301 cells = test: Cytotoxicity in uninfected A301 cells; format: cell-based; details: uninfected A301 cells with sample dilutions, without virus
Protocol: as §1, with “Test compounds and AZT (control) are added to the infected cells in two, three or five-fold dilutions, diluted out four places for screening and eight places for confirmation in 96 well plates.” left out

For `[N-]=[N+]=N[C@]1(CO)O[C@@H](n2ccc(N)nc2=O)[C@H](O)[C@@H]1O` [4'-azidocytidine], the cytotoxicity [1] is given as “cytotoxic” and the anti-HIV activity (HIV) is given as “devoid of anti-HIV activity”.

In the case of `[N-]=[N+]=N[C@H]1C[C@H](n2cc(Cl)c(=O)[nH]c2=O)O[C@@H]1CO` [5-chloro-substituted-3'-azido-2',3'-dideoxyuridine], the antiviral activity [2] is listed as “potent antiviral activity”.

For `O=c1[nH]c(=O)n([C@H]2C[C@H](F)[C@@H](CO)O2)cc1Cl` [5-chloro-substituted-3'-fluoro-2',3'-dideoxyuridine], the antiviral activity [2] is listed as “potent antiviral activity”.

For `[N-]=[N+]=N[C@]1(CO)O[C@@H](n2cc(Cl)c(=O)[nH]c2=O)C[C@@H]1O` [A, 1-(4-azido-2-deoxy-β-D-erythro-pentofuranosyl)-5-chloro-2,4-dioxopyrimidine], the EC50 (HIV (LAV Strain); A301 (Alex) cells pre-infected with HIV (LAV Strain), seven days incubation, reverse transcriptase level, read-out: EC50) was 0.056 µM, the MCC at 168 h [3] was 1 mM and the “Cell Toxicity Complete” value (Uninfected A301 cells) was over 1000 µM.

With `Cc1cn([C@H]2C[C@H](N=[N+]=[N-])[C@@H](CO)O2)c(=O)[nH]c1=O` [control, 3'-azidothymidine] the EC50 (HIV (LAV Strain)) was 0.005 µM, the MCC at 168 h [3] was over 0.04 mM and the “Cell Toxicity Complete” value (Uninfected A301 cells) was over 40 µM.

From patent publication EP0457326A1, “Antiviral agents” (SYNTEX (U.S.A.) INC., priority 1990, dated 1991)
